ChEMBL document CHEMBL1201862, “PubChem BioAssay data set” (2004)
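Each compound was tested at five concentrations against cells in 96-well plates for 48 hours. Abbreviation: GI50, concentration required for 50% inhibition of growth.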 Active and inactive are the calls of the source. Rule as the data show it: active = GI50 up to about 1.1 µM and inactive = higher.

Experiments:
Assay in all cases: growth of human tumour cells (NCI), 48 h
HL-60 = test system: HL-60
LOX IMVI = test system: LOX IMVI
M14 = test system: M14
ACHN = test system: ACHN
OVCAR-3 = test system: OVCAR-3
OVCAR-5 = test system: OVCAR-5
HCT-116 = test system: HCT-116
U-251 = test system: U-251
NCI-H460 = test system: NCI-H460
UACC-62 = test system: UACC-62
SNB-75 = test system: SNB-75
SK-MEL-2 = test system: SK-MEL-2
CAKI-1 = test system: CAKI-1
HOP-62 = test system: HOP-62
UACC-257 = test system: UACC-257
NCI-H23 = test system: NCI-H23
Malme-3M = test system: Malme-3M
786-0 = test system: 786-0
COLO 205 = test system: COLO 205
MDA-MB-435 = test system: MDA-MB-435

Measured: GI50

N=C1c2ccccc2C(=O)c2c(NCCNCCO)ccc(O)c21
inactive: HL-60 6.85 µM | LOX IMVI 4.15 µM | M14 10.3 µM | ACHN 3.23 µM | OVCAR-3 12.9 µM | OVCAR-5 16 µM | HCT-116 3.27 µM | U-251 4.46 µM | NCI-H460 5.06 µM | UACC-62 6.4 µM | SNB-75 15.6 µM | SK-MEL-2 17.1 µM | CAKI-1 10.3 µM | HOP-62 4.91 µM | UACC-257 13.9 µM | NCI-H23 9.16 µM | Malme-3M 13.7 µM | 786-0 4.73 µM | COLO 205 4.73 µM

O=P1(Oc2ccccc2)N=P(c2ccccc2)(c2ccccc2)C=C(c2ccc(Cl)cc2)N1 (stereo not given)
inactive: HL-60 4.86 µM | M14 7.67 µM | ACHN 13 µM | OVCAR-3 4.51 µM | OVCAR-5 13.1 µM | HCT-116 7.23 µM | U-251 5.51 µM | NCI-H460 5.14 µM | UACC-62 13.9 µM | SK-MEL-2 13.5 µM | CAKI-1 9.66 µM | HOP-62 16.4 µM | UACC-257 15.4 µM | MDA-MB-435 4.44 µM | NCI-H23 15.3 µM | Malme-3M 15.5 µM | 786-0 13.4 µM | COLO 205 5.15 µM

FC(F)(F)c1nc(-c2ccccc2)oc1Sc1nnc(Sc2oc(-c3ccccc3)nc2C(F)(F)F)s1
inactive: HL-60 14.2 µM | LOX IMVI 10.4 µM | M14 14.2 µM | ACHN > 82.2 µM | OVCAR-3 > 43.4 µM | OVCAR-5 > 100 µM | HCT-116 > 65.3 µM | U-251 > 42.5 µM | NCI-H460 > 100 µM | UACC-62 35.2 µM | SNB-75 37.8 µM | SK-MEL-2 86.7 µM | CAKI-1 30.1 µM | HOP-62 > 100 µM | UACC-257 > 69.7 µM | NCI-H23 24.2 µM | Malme-3M 18.1 µM | 786-0 28.4 µM | COLO 205 41.1 µM

CN1N=CSC12C(=O)N(c1ccccc1)C(=O)N2c1ccccc1 (stereo not given)
inactive: HL-60 > 100 µM | LOX IMVI > 100 µM | M14 > 100 µM | ACHN > 100 µM | OVCAR-3 > 100 µM | OVCAR-5 > 100 µM | HCT-116 > 100 µM | U-251 > 100 µM | NCI-H460 > 100 µM | UACC-62 > 100 µM | SNB-75 > 100 µM | SK-MEL-2 > 100 µM | CAKI-1 > 100 µM | HOP-62 > 100 µM | UACC-257 > 100 µM | NCI-H23 > 100 µM | Malme-3M > 100 µM | 786-0 > 100 µM | COLO 205 > 100 µM
